In PMC5681653, “Structural basis of arrestin-3 activation and signaling” (Nature Communications, 2017) one finds Kd and fold change of bound arrestin-3 with 100 µM IP6 against without IP6 data, which are given here for 2 molecules.

The target in one test is T1, arrestin-3 (1-393) (Bos taurus, UniProt P32120).
T1 construct: gene ARRB2; residues 1-393 (stop codon at L394, deletes 394-408), pTrcHisB, E. coli BL21 Gold, purified by heparin, Q/SP and size exclusion columns; 43 kD monomer, 134 kD trimer with IP6
The experiment in a line: microscale thermophoresis, two-site fit, pre-IR fluorescence change. The class given is binding. (MST reads how a fluorescent partner responds to local heating, with and without ligand.)

Another test concerns the target His tagged JNK3α2 (UniProt P53779). Kind of test: pull-down; His tagged JNK3α2 (10 µg) on Ni-NTA resin, arrestin-3 (10 µg) added with and without 100 µM IP6; wash 20 mM MOPS pH 7.4, 150 mM NaCl, 25 mM imidazole; eluted with 250 mM imidazole; Coomassie and Western, densitometry.

His tagged JNK3α2, sequence (P53779 whole entry): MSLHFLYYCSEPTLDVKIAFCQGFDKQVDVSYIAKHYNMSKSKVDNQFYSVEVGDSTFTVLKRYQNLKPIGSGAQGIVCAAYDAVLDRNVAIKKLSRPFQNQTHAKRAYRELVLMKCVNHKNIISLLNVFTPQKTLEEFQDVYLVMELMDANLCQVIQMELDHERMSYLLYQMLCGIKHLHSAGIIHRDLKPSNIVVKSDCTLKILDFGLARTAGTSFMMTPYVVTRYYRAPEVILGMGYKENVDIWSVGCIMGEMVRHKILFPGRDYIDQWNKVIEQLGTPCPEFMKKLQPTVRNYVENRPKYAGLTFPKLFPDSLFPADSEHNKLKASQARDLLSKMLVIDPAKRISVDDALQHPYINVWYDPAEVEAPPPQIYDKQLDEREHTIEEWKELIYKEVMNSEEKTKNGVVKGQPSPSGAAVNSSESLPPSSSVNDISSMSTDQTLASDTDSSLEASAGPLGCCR
T1 sequence (P32120 1-393 isoform P32120-2): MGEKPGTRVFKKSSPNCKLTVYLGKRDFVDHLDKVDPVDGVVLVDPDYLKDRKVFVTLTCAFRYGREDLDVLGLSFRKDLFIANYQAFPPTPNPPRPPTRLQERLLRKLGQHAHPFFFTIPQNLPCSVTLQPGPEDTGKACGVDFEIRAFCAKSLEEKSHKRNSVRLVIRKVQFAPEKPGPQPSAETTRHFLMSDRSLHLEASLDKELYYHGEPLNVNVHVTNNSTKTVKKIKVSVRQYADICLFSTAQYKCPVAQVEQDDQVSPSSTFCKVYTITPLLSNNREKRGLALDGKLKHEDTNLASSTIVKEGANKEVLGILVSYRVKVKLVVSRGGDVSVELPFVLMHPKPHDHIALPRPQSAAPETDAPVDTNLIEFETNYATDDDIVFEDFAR

As to `O=P(O)(O)O[C@H]1[C@H](OP(=O)(O)O)[C@@H](OP(=O)(O)O)[C@H](OP(=O)(O)O)[C@@H](OP(=O)(O)O)[C@H]1OP(=O)(O)O` [IP6], on arrestin-3 (1-393), binding was put at a Kd of 57 nM.
“bovine arrestin-3 (1-393) (domain or fragment)” yielded a fold change of bound arrestin-3 with 100 µM IP6 against without IP6 with His tagged JNK3α2 of 2 fold.
